SMILES strings stand for the structures. Where a name gives a salt, the structure may show the parent alone. A value given as a limit tells only on which side of the number the result lay.

In the test the target is T1, human TGR5 (Homo sapiens, UniProt Q8TDU6).
T1 construct: expressed in transfected cells; host or cells: HEK293
T1 sequence (Q8TDU6 1-330): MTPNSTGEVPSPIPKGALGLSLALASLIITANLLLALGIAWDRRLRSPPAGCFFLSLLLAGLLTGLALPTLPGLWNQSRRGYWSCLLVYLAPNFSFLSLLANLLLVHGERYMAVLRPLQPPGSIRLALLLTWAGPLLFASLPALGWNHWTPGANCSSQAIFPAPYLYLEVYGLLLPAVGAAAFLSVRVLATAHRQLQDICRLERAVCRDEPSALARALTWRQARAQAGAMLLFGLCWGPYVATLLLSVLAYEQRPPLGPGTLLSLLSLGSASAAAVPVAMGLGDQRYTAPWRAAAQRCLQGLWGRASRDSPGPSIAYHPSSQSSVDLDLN
The experiment in a line: Cell-based TGR5 assay (cAMP generation, HTRF). Conditions: HEK293 cells stably transfected with human TGR5; cAMP by HTRF; 30 minutes at 37° C.; read-out: pEC50 Human TGR5 (converted). The gist of the method:
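Read-out was HTRF detection of cAMP, converted to concentration via a standard curve and fitted (3-parameter logistic) for pEC50 and maximal response. Agonist stimulation used HEK293 cells stably transfected with human TGR5, incubated 30 min at 37° C in IBMX-containing buffer at 0.05 nM to 10 μM compound.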
A general note: In TR-FRET formats the signal depends on donor and acceptor labels being close together.
For the compound `C[C@H](O)CN(CCCCc1cc(Cl)c(COC2(c3cnccc3-c3ccccc3OC3CC3)CC2)cc1Cl)C(=O)[C@@H](O)[C@@H](O)[C@H](O)[C@@H](O)CO` [Compound I-215, (2S,3S,4R,5S)-N-{4-[2,5-dichloro-4-({1-[4-(2-cyclopropoxyphenyl)pyridin-3-yl]cyclopropoxy}methyl)phenyl]butyl}-2,3,4,5,6-pentahydroxy-N-[(2S)-2-hydroxypropyl]hexanamide], the EC50 was under 100 nM. Take `O=C([C@@H](O)[C@@H](O)[C@H](O)[C@@H](O)CO)N(CCCCc1cc(Cl)c(COC2(c3cnccc3-c3ccccc3OC3CC3)CC2)cc1Cl)C1CCOCC1` [Compound I-216, (2S,3S,4R,5S)-N-{4-[2,5-dichloro-4-({1-[4-(2-cyclopropoxyphenyl)pyridin-3-yl]cyclopropoxy}methyl)phenyl]butyl}-2,3,4,5,6-pentahydroxy-N-(oxan-4-yl)hexanamide]: the EC50 is 126 to 1000 nM. The result for `O=C([C@@H](O)[C@@H](O)[C@H](O)[C@@H](O)CO)N(CCCO)CCCCc1cc(Cl)c(COC2(c3cnccc3-c3ccccc3OC3CC3)CC2)cc1Cl` [Compound I-217, (2S,3S,4R,5S)-N-{4-[2,5-dichloro-4-({1-[4-(2-cyclopropoxyphenyl)pyridin-3-yl]cyclopropoxy}methyl)phenyl]butyl}-2,3,4,5,6-pentahydroxy-N-(3-hydroxypropyl)hexanamide] reads under 100 nM; that for `O=C(CCCCc1cc(Cl)c(COC2(c3cnccc3-c3ccccc3OC3CC3)CC2)cc1Cl)N(CCCO)C[C@H](O)[C@@H](O)[C@H](O)[C@H](O)CO` [Compound I-218, 5-[2,5-dichloro-4-({1-[4-(2-cyclopropoxyphenyl)pyridin-3-yl]cyclopropoxy}methyl)phenyl]-N-(3-hydroxypropyl)-N-[(2S,3R,4R,5R)-2,3,4,5,6-pentahydroxyhexyl]pentanamide], under 100 nM. Take `COCCCN(C[C@H](O)[C@@H](O)[C@H](O)[C@H](O)CO)C(=O)CCCCc1cc(Cl)c(COC2(c3cnccc3-c3ccccc3OC3CC3)CC2)cc1Cl` [Compound I-220, 5-[2,5-dichloro-4-({1-[4-(2-cyclopropoxyphenyl)pyridin-3-yl]cyclopropoxy}methyl)phenyl]-N-(3-methoxypropyl)-N-[(2S,3R,4R,5R)-2,3,4,5,6-pentahydroxyhexyl]pentanamide]: the EC50 is 126 to 1000 nM. The result for `CN(C)C(=O)CN(C[C@H](O)[C@@H](O)[C@H](O)[C@H](O)CO)C(=O)CCCCc1cc(Cl)c(COC2(c3cnccc3-c3ccccc3OC3CC3)CC2)cc1Cl` [Compound I-221, 5-[2,5-dichloro-4-({1-[4-(2-cyclopropoxyphenyl)pyridin-3-yl]cyclopropoxy}methyl)phenyl]-N-[(dimethylcarbamoyl)methyl]-N-[(2S,3R,4R,5R)-2,3,4,5,6-pentahydroxyhexyl]pentanamide] reads under 100 nM.

With `CN(C)C(=O)CCN(C[C@H](O)[C@@H](O)[C@H](O)[C@H](O)CO)C(=O)CCCCc1cc(Cl)c(COC2(c3cnccc3-c3ccccc3OC3CC3)CC2)cc1Cl` [Compound I-222, 5-[2,5-dichloro-4-({1-[4-(2-cyclopropoxyphenyl)pyridin-3-yl]cyclopropoxy}methyl)phenyl]-N-[2-(dimethylcarbamoyl)ethyl]-N-[(2S,3R,4R,5R)-2,3,4,5,6-pentahydroxyhexyl]pentanamide], the EC50 is under 100 nM.

Take `NC(=O)CCN(C[C@H](O)[C@@H](O)[C@H](O)[C@H](O)CO)C(=O)CCCCc1cc(Cl)c(COC2(c3cnccc3-c3ccccc3OC3CC3)CC2)cc1Cl` [Compound I-223, N-(2-carbamoylethyl)-5-[2,5-dichloro-4-({1-[4-(2-cyclopropoxyphenyl)pyridin-3-yl]cyclopropoxy}methyl)phenyl]-N-[(2S,3R,4R,5R)-2,3,4,5,6-pentahydroxyhexyl]pentanamide]: the EC50 was under 100 nM. The result for `Cc1cc(COC2(c3cnccc3-c3ccccc3OC3CC3)CC2)c(C)cc1CCCCC(=O)NC[C@H](O)[C@@H](O)[C@H](O)[C@H](O)CO` [Compound I-229, 5-[4-({1-[4-(2-cyclopropoxyphenyl)pyridin-3-yl]cyclopropoxy}methyl)-2,5-dimethylphenyl]-N-[(2S,3R,4R,5R)-2,3,4,5,6-pentahydroxyhexyl]pentanamide] reads under 100 nM; that for `Cc1cc(COC2(c3cnccc3-c3ccccc3OC3CC3)CC2)c(C)cc1CCCCC(=O)N(C)C[C@H](O)[C@@H](O)[C@H](O)[C@H](O)CO` [Compound I-230, 5-[4-({1-[4-(2-cyclopropoxyphenyl)pyridin-3-yl]cyclopropoxy}methyl)-2,5-dimethylphenyl]-N-methyl-N-[(2S,3R,4R,5R)-2,3,4,5,6-pentahydroxyhexyl]pentanamide], under 100 nM; that for `Cc1ccc(CCCCNC(=O)NC[C@H](O)[C@@H](O)[C@H](O)[C@H](O)CO)cc1COC1(c2cnccc2-c2ccccc2OC2CC2)CC1` [Compound I-239, 1-{4-[3-({1-[4-(2-cyclopropoxyphenyl)pyridin-3-yl]cyclopropoxy}methyl)-4-methylphenyl]butyl}-3-[(2S,3R,4R,5R)-2,3,4,5,6-pentahydroxyhexyl]urea], 126 to 1000 nM.

Take `Cc1ccc(CCCCNC(=O)NC[C@H](O)[C@@H](O)[C@H](O)[C@H](O)CO)cc1CNC1(c2cnccc2-c2ccccc2OC2CC2)CC1` [Compound I-240, 1-(4-{3-[({1-[4-(2-cyclopropoxyphenyl)pyridin-3-yl]cyclopropyl}amino)methyl]-4-methylphenyl}butyl)-3-[(2S,3R,4R,5R)-2,3,4,5,6-pentahydroxyhexyl]urea]: the EC50 is under 100 nM. The result for `CC(CCCCN)c1ccc(Cl)c(CNC2(c3cnccc3-c3ccccc3OC3CC3)CC2)c1` (stereo not shown) [Compound I-242, N-[[5-(6-aminohexan-2-yl)-2-chlorophenyl]methyl]-1-[4-(2-cyclopropoxyphenyl)pyridin-3-yl]cyclopropan-1-amine] reads under 100 nM; that for `CC(CCCCC(=O)O)c1ccc(Cl)c(CNC2(c3cnccc3-c3ccccc3OC3CC3)CC2)c1` (stereo not shown) [Compound I-249, 6-{4-chloro-3-[({1-[4-(2-cyclopropoxyphenyl)pyridin-3-yl]cyclopropyl}amino)methyl]phenyl}heptanoic acid], under 100 nM; that for `CC(CCCN)c1ccc(Cl)c(CNC2(c3cnccc3-c3ccccc3OC3CC3)CC2)c1` (stereo not shown) [Compound I-252, N-{[5-(5-aminopentan-2-yl)-2-chlorophenyl]methyl}-1-[4-(2-cyclopropoxyphenyl)pyridin-3-yl]cyclopropan-1-amine], 126 to 1000 nM. On to `Cc1ccc(C(C)CCCC(=O)NC[C@H](O)[C@@H](O)[C@H](O)[C@H](O)CO)cc1CNC1(c2cnccc2-c2ccccc2OC2CC2)CC1` (stereo partly drawn) [Compound I-257, 5-[3-[([1-[4-(2-cyclopropoxyphenyl)pyridin-3-yl]cyclopropyl]amino)methyl]-4-methylphenyl]-N-[(2S,3R,4R,5R)-2,3,4,5,6-pentahydroxyhexyl]hexanamide dihydrochloride], for which the EC50 is under 100 nM. Take `CC(CCCN(C)C(=O)[C@@H](O)[C@@H](O)[C@H](O)[C@@H](O)CO)c1ccc(Cl)c(CNC2(c3cnccc3-c3ccccc3OC3CC3)CC2)c1` (stereo partly drawn) [Compound I-258, (2S,3S,4R,5S)-N-(4-[4-chloro-3-[([1-[4-(2-cyclopropoxyphenyl)pyridin-3-yl]cyclopropyl]amino)methyl]phenyl]pentyl)-2,3,4,5,6-pentahydroxy-N-methylhexanamide]: the EC50 was under 100 nM.

Regarding `Cc1ccc(C(C)CCCC(=O)N(Cc2ccccc2)C[C@H](O)[C@@H](O)[C@H](O)[C@H](O)CO)cc1CNC1(c2cnccc2-c2ccccc2OC2CC2)CC1` (stereo partly drawn) [Compound I-259, N-benzyl-5-(3-(((1-(4-(2-cyclopropoxyphenyl)pyridin-3-yl)cyclopropyl)amino)methyl)-4-methylphenyl)-N-((2S,3R,4R,5R)-2,3,4,5,6-pentahydroxyhexyl) hexanamide], the EC50 is under 100 nM. As for `CC(CCCC(=O)NC[C@H](O)[C@@H](O)[C@H](O)[C@H](O)CO)c1cc(Cl)c(CNC2(c3cnccc3-c3ccccc3OC3CC3)CC2)cc1Cl` (stereo partly drawn) [Compound I-260, 5-[2,5-dichloro-4-[([1-[4-(2-cyclopropoxyphenyl)pyridin-3-yl]cyclopropyl]amino)methyl]phenyl]-N-[(2S,3R,4R,5R)-2,3,4,5,6-pentahydroxyhexyl]hexanamide], the figure is under 100 nM; as for `CC(CCCC(=O)N(CCCCCO)C[C@H](O)[C@@H](O)[C@H](O)[C@H](O)CO)c1ccc(Cl)c(CNC2(c3cnccc3-c3ccccc3OC3CC3)CC2)c1` (stereo partly drawn) [Compound I-261, 5-(4-chloro-3-(((1-(4-(2-cyclopropoxyphenyl)pyridin-3-yl)cyclopropyl)amino)methyl)phenyl)-N-(5-hydroxypentyl)-N-((2S,3R,4R,5R)-2,3,4,5,6-pentahydroxyhexyl) hexanamide], under 100 nM; as for `CC(CCCC(=O)N(CCS(=O)(=O)N1CCOCC1)C[C@H](O)[C@@H](O)[C@H](O)[C@H](O)CO)c1ccc(Cl)c(CNC2(c3cnccc3-c3ccccc3OC3CC3)CC2)c1` (stereo partly drawn) [Compound I-262, 5-(4-chloro-3-(((1-(4-(2-cyclopropoxyphenyl)pyridin-3-yl)cyclopropyl)amino)methyl)phenyl)-N-(2-(morpholinosulfonyl)ethyl)-N-((2S,3R,4R,5R)-2,3,4,5,6-pentahydroxyhexyl)hexanamide], under 100 nM. The result for `C[C@@H](CCCCNC(=O)N[C@@H](CO)[C@@H](O)[C@H](O)[C@H](O)CO)c1ccc(Cl)c(COC2(c3cnccc3-c3ccccc3OC3CC3)CC2)c1` [Compound I-263] reads under 100 nM.
